Measurements from ChEMBL document CHEMBL1201862, “PubChem BioAssay data set” (2004).
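All cell lines were grown in 96-well plates and treated with compound for 48 hours. GI50 marks 50% less growth.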 Activity calls are given as the source filed them. Rule as the data show it: active = GI50 up to about 1.1 µM and inactive = higher.

Legend:
Test in all cases: growth of human tumour cells (NCI), 48 h
[1] = test system: A549
[2] = test system: BT-549
[3] = test system: CAKI-1
[4] = test system: HCT-116
[5] = test system: HCT-15
[6] = test system: HOP-62
[7] = test system: IGROV-1
[8] = test system: KM12
[9] = test system: LOX IMVI
[10] = test system: MOLT-4
[11] = test system: Malme-3M
[12] = test system: NCI-H226
[13] = test system: RXF 393
[14] = test system: SF-295
[15] = test system: SK-MEL-2
[16] = test system: SK-MEL-5
[17] = test system: SK-OV-3
[18] = test system: SNB-19
[19] = test system: SW-620
[20] = test system: TK-10

Compound	GI50 [1]	GI50 [2]	GI50 [3]	GI50 [4]	GI50 [5]	GI50 [6]	GI50 [7]	GI50 [8]	GI50 [9]	GI50 [10]	GI50 [11]	GI50 [12]	GI50 [13]	GI50 [14]	GI50 [15]	GI50 [16]	GI50 [17]	GI50 [18]	GI50 [19]	GI50 [20]
CN1CN(c2ccccc2)C2(CCN(CCCN(C)c3ccc(F)cc3)CC2)C1=O	23.2 µM (inactive)	15.2 µM (inactive)	30.1 µM (inactive)	12.8 µM (inactive)	22.3 µM	17.7 µM (inactive)	16.5 µM (inactive)	16 µM (inactive)	15.8 µM (inactive)	5.02 µM (inactive)	19.5 µM (inactive)	19.1 µM (inactive)	16.3 µM (inactive)	14.9 µM (inactive)	17.5 µM (inactive)	16.2 µM (inactive)	17.1 µM (inactive)	20 µM (inactive)	17.8 µM (inactive)	18.9 µM (inactive)
CC(=O)Nc1ccc(-c2cc(C(=O)O)c3cc4ccccc4cc3n2)cc1	> 100 µM (inactive)	> 100 µM (inactive)	> 100 µM (inactive)	> 100 µM (inactive)	> 100 µM	> 100 µM (inactive)	> 100 µM (inactive)	> 100 µM (inactive)	> 100 µM (inactive)	> 100 µM (inactive)	> 100 µM (inactive)	> 100 µM (inactive)	> 100 µM (inactive)	> 100 µM (inactive)	> 100 µM (inactive)	> 100 µM (inactive)	> 100 µM (inactive)	> 100 µM (inactive)	> 100 µM (inactive)	> 100 µM (inactive)
O=C(C1OC1c1ccc(F)cc1)C12CC3CC(CC(C3)C1)C2 (stereo not given)	21 µM (inactive)	15.6 µM (inactive)	25 µM (inactive)	5.98 µM (inactive)	15.5 µM	27 µM (inactive)	19 µM (inactive)	15.7 µM (inactive)	2.85 µM (inactive)	15.8 µM (inactive)	21.3 µM (inactive)	20.2 µM (inactive)	17.7 µM (inactive)	22.6 µM (inactive)	12.9 µM (inactive)	16.5 µM (inactive)	31.1 µM (inactive)	33.4 µM (inactive)	17.2 µM (inactive)	35.2 µM (inactive)
COC(=O)/C=C(/C(=O)OC)c1c(C)c(C)c2c(C)cc(C)cc(C)c1-2	20.6 µM (inactive)	22.4 µM (inactive)	27.4 µM (inactive)	17.4 µM (inactive)	8.85 µM	23 µM (inactive)	37.9 µM (inactive)	32.7 µM (inactive)	28.7 µM (inactive)	> 100 µM (inactive)	28.4 µM (inactive)	13.3 µM (inactive)	26.9 µM (inactive)	20.9 µM (inactive)	26.2 µM (inactive)	12.6 µM (inactive)	18.2 µM (inactive)	58.7 µM (inactive)	17.1 µM (inactive)	55.1 µM (inactive)
CCOC(=O)Nc1ccc2c(c1)N(C(=O)CCN(CC)CC)c1ccccc1S2 [ETHACIZINE]	34.3 µM (inactive)	28.1 µM (inactive)	36.4 µM (inactive)	17.6 µM (inactive)	30.4 µM	33.9 µM (inactive)	40.5 µM (inactive)	15.5 µM (inactive)	17.6 µM (inactive)	22.9 µM (inactive)	18.7 µM (inactive)	51.2 µM (inactive)	21.6 µM (inactive)	22.1 µM (inactive)	22 µM (inactive)	19.2 µM (inactive)	35 µM (inactive)	47 µM (inactive)	25.4 µM (inactive)	32.9 µM (inactive)
CS(=O)(=O)N(CC(=O)O)Cc1ccccc1	> 100 µM (inactive)	> 100 µM (inactive)	> 100 µM (inactive)	> 100 µM (inactive)	> 100 µM	> 100 µM (inactive)	> 100 µM (inactive)	> 100 µM (inactive)	> 100 µM (inactive)	> 100 µM (inactive)	> 100 µM (inactive)	> 100 µM (inactive)	> 100 µM (inactive)	> 100 µM (inactive)	> 100 µM (inactive)	> 100 µM (inactive)	> 100 µM (inactive)	> 100 µM (inactive)	> 100 µM (inactive)	> 100 µM (inactive)
COc1ccc(/C=C2\CCC(Cc3ccccc3)(CN(C)C)C2=O)cc1 (stereo not given)	50.5 µM (inactive)	68.5 µM (inactive)	48 µM (inactive)	28.8 µM (inactive)	26.7 µM	> 100 µM (inactive)	> 100 µM (inactive)	41.1 µM (inactive)	24.5 µM (inactive)	25 µM (inactive)	42.3 µM (inactive)	42 µM (inactive)	35.1 µM (inactive)	> 83.2 µM (inactive)	60.4 µM (inactive)	20.8 µM (inactive)	> 100 µM (inactive)	51.4 µM (inactive)	26.7 µM (inactive)	> 100 µM (inactive)
